Reference: PubChem BioAssay (NCI)
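Briefly, cells in 96-well plates were exposed to five compound concentrations for 48 h, and endpoints were estimated by linear interpolation. The concentration for full growth arrest is given as TGI.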

Experiments:
Assay in all cases: NCI-60 cell line screen, 48 h
HOP-92 NSCLC = test system: HOP-92 NSCLC
HL-60(TB) leukemia = test system: HL-60(TB) leukemia
BT-549 breast = test system: BT-549 breast
ACHN renal = test system: ACHN renal
SK-MEL-28 melanoma = test system: SK-MEL-28 melanoma
SN12C renal = test system: SN12C renal
A498 renal = test system: A498 renal
NCI/ADR-RES ovarian = test system: NCI/ADR-RES ovarian
OVCAR-4 ovarian = test system: OVCAR-4 ovarian
OVCAR-3 ovarian = test system: OVCAR-3 ovarian
SK-MEL-5 melanoma = test system: SK-MEL-5 melanoma
OVCAR-5 ovarian = test system: OVCAR-5 ovarian
NCI-H226 lung = test system: NCI-H226 lung
RXF 393 renal = test system: RXF 393 renal
HOP-62 NSCLC = test system: HOP-62 NSCLC
CCRF-CEM leukemia = test system: CCRF-CEM leukemia
T-47D breast = test system: T-47D breast
SF-539 CNS = test system: SF-539 CNS
KM12 colon = test system: KM12 colon
MDA-MB-435 = test system: MDA-MB-435
LOX IMVI melanoma = test system: LOX IMVI melanoma
SF-268 CNS = test system: SF-268 CNS
PC-3 prostate = test system: PC-3 prostate
EKVX NSCLC = test system: EKVX NSCLC
U251 CNS = test system: U251 CNS
RPMI-8226 leukemia = test system: RPMI-8226 leukemia
M14 melanoma = test system: M14 melanoma
UACC-257 melanoma = test system: UACC-257 melanoma
A549 NSCLC = test system: A549 NSCLC
UO-31 renal = test system: UO-31 renal
TK-10 renal = test system: TK-10 renal
HT29 colon = test system: HT29 colon
HS 578T breast = test system: HS 578T breast
SK-OV-3 ovarian = test system: SK-OV-3 ovarian
OVCAR-8 ovarian = test system: OVCAR-8 ovarian
786-0 renal = test system: 786-0 renal
NCI-H23 lung = test system: NCI-H23 lung
COLO 205 colon = test system: COLO 205 colon
HCT-15 colon = test system: HCT-15 colon
NCI-H460 lung = test system: NCI-H460 lung
K-562 leukemia = test system: K-562 leukemia
SF-295 CNS = test system: SF-295 CNS
DU-145 prostate = test system: DU-145 prostate
HCT-116 colon = test system: HCT-116 colon
MDA-MB-231 breast = test system: MDA-MB-231 breast
IGROV1 ovarian = test system: IGROV1 ovarian
SNB-75 CNS = test system: SNB-75 CNS
SR leukemia = test system: SR leukemia
UACC-62 melanoma = test system: UACC-62 melanoma
NCI-H522 lung = test system: NCI-H522 lung
MCF7 breast = test system: MCF7 breast
SNB-19 CNS = test system: SNB-19 CNS
MALME-3M melanoma = test system: MALME-3M melanoma
MOLT-4 leukemia = test system: MOLT-4 leukemia
SW-620 colon = test system: SW-620 colon
SK-MEL-2 melanoma = test system: SK-MEL-2 melanoma
CAKI-1 renal = test system: CAKI-1 renal
HCC-2998 colon = test system: HCC-2998 colon
MDA-N = test system: MDA-N

Measured: TGI

O=C(Nc1sccc1S(=O)(=O)c1ccc(Cl)cc1)c1ccc(Cl)cc1Cl
not listed: HCC-2998 colon | MDA-N
> 100 µM: all other assays above

COC(=N)c1ncn(Cc2ccccc2)c1N
not listed: HL-60(TB) leukemia | BT-549 breast | UO-31 renal | SR leukemia | MOLT-4 leukemia
> 100 µM: all other assays above
